Assays:
[1] = target: T1, DDB1DB/DCAF15 and RBM39 R1R2 complex (Homo sapiens, UniProt Q14498+Q66K64); test: DCAF15 RBM39 Complex Formation Assay (FRET); type: binding; conditions: FRET ratio Em 665/Em 615, incubated overnight at 4° C.
T1 construct: Amino acids 150 to 331 of RBM39 were cloned into pGEX4T3; GST (from vector pGEX4T3); TEV cleavage site (N); made in house; host or cells: DDB1DB/His-DCAF15: baculovirus/Sf9 co-expression; RBM39 R1R2: E. coli (pGEX4T3)
How it was run: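 Ternary complex formation read by TR-FRET (Em 665/615, excitation 340 nm) after overnight incubation at 4° C of 20 nM baculovirus DDB1DB/His-DCAF15 and 50 nM E. coli RBM39 RRM1-RRM2 FLAG fragment with 14-point, 3-fold compound dilutions from 1 μM; EC50 from 4-parameter fit.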

[2] = test system: HCT116 human colorectal carcinoma cells; test: CellTiter-Glo Luminescent Cell Viability Assay; type: cell-based; conditions: HCT-116, 72 h, 3 days
How it was run: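 CellTiter-Glo luminescence gave viability after 3 days of compound exposure in HCT116 cells grown in DMEM/10% FBS. Final concentrations ran from 5 to 0.0002 […] in 1:3 steps, each in triplicate, with IC50 derived from the curves.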

T1 sequence (Q66K64 whole entry, the tested form may be a part): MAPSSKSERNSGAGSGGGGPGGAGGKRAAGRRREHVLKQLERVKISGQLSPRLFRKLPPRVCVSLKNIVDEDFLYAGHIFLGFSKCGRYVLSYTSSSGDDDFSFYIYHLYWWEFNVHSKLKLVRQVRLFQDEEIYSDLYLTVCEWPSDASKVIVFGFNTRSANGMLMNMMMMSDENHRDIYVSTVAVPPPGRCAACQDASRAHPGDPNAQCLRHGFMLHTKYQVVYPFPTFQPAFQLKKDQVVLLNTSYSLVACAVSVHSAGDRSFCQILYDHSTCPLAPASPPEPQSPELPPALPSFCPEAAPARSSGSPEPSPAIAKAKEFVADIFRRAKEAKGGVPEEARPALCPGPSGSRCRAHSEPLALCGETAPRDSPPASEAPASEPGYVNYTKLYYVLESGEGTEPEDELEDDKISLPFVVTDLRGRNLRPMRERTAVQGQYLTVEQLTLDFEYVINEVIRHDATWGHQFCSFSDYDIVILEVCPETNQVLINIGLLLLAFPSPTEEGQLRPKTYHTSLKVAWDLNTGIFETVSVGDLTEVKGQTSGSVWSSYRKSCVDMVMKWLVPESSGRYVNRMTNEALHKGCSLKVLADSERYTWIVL
T1 sequence (Q14498 150-331): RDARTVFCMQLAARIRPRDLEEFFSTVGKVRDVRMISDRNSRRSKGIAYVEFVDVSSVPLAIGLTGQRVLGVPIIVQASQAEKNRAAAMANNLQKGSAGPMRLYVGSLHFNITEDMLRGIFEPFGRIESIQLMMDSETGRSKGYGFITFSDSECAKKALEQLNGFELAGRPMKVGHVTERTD
T1 sequence (Q16531 with tags, fused parts or gaps DEL396-708 partner): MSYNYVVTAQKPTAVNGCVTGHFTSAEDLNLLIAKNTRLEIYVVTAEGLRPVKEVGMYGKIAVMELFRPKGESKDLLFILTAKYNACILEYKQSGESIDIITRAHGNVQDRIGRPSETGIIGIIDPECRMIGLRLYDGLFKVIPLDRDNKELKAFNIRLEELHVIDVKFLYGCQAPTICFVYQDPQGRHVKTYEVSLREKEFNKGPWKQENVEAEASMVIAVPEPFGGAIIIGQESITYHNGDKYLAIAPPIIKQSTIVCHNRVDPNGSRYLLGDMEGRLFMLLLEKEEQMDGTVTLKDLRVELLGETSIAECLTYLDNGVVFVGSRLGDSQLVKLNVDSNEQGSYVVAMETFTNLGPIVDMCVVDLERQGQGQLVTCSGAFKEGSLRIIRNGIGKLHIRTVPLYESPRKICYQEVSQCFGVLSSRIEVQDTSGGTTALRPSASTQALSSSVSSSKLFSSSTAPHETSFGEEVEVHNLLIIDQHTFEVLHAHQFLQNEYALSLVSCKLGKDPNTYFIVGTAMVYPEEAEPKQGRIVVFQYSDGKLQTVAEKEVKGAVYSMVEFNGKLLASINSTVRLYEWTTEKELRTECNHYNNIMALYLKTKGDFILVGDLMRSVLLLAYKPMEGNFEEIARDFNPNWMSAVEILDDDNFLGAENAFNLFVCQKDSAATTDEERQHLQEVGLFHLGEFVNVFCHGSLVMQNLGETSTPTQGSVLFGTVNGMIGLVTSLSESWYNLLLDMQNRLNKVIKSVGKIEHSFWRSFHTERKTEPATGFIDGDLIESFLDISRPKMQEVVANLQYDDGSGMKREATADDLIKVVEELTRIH

IC50 [1]	EC50 [2]	Structure (SMILES)
< 250 nM	< 250 nM	Cc1ccc(NS(=O)(=O)c2cnn([C@H](C)[C@H](C)O)c2)c2[nH]cc(C#N)c12 [Compound 274, N-(3-cyano-4-methyl-1H-indol-7-yl)-1-[(1R,2S)-2-hydroxy-1-methyl-propyl]pyrazole-4-sulfonamide]
250 to 1000 nM	> 1000 nM	Cn1cc(S(=O)(=O)Nc2ccc(C(F)(F)F)c3cc[nH]c23)cn1 [Compound 96, 1-methyl-N-[4-(trifluoromethyl)-1H-indol-7-yl]pyrazole-4-sulfonamide]
< 250 nM	250 to 1000 nM	NC(=O)Cn1cc(S(=O)(=O)n2cc(S(=O)(=O)Nc3cccc4c(Cl)c[nH]c34)cn2)cn1 [Compound 17, 2-[4-[4-[(3-chloro-1H-indol-7-yl)sulfamoyl]pyrazol-1-yl]sulfonylpyrazol-1-yl]acetamide]
< 250 nM	< 250 nM	Cc1ccc(NS(=O)(=O)c2cnn(CC(F)F)c2N)c2[nH]cc(C#N)c12 [Compound 277, 5-amino-N-(3-cyano-4-methyl-1H-indol-7-yl)-1-(2,2-difluoroethyl)pyrazole-4-sulfonamide]
< 250 nM	> 1000 nM	Cc1ccc(NS(=O)(=O)c2cnn(CC(=O)NC3CC(F)(F)C3)c2)c2[nH]cc(C#N)c12 [Compound 137, 2-[4-[(3-cyano-4-methyl-1H-indol-7-yl)sulfamoyl]pyrazol-1-yl]-N-(3,3-difluorocyclobutyl)acetamide]
< 250 nM	250 to 1000 nM	Cc1ccc(NS(=O)(=O)c2cnn(C3(CC#N)COC3)c2)c2[nH]cc(C#N)c12 [Compound 157, N-(3-cyano-4-methyl-1H-indol-7-yl)-1-[3-(cyanomethyl)oxetan-3-yl]pyrazole-4-sulfonamide]
< 250 nM	250 to 1000 nM	COC(Cn1cc(S(=O)(=O)Nc2cccc3c(Cl)c[nH]c23)cn1)OC [Compound 32, N-(3-chloro-1H-indol-7-yl)-1-(2,2-dimethoxyethyl)pyrazole-4-sulfonamide]
< 250 nM	< 250 nM	CCn1cc(S(=O)(=O)Nc2ccc(C)c3c(C#N)c[nH]c23)cn1 [Compound 68, N-(3-cyano-4-methyl-1H-indol-7-yl)-1-ethyl-pyrazole-4-sulfonamide]
< 250 nM	250 to 1000 nM	CC(C)(CO)n1cc(S(=O)(=O)Nc2cccc3c(C#N)c[nH]c23)cn1 [Compound 235, N-(3-cyano-1H-indol-7-yl)-1-(2-hydroxy-1,1-dimethyl-ethyl)pyrazole-4-sulfonamide]
< 250 nM	250 to 1000 nM	CC(C)(O)Cn1ncc(S(=O)(=O)Nc2ccc(Cl)c3c(C#N)c[nH]c23)c1F [Compound 188, N-(4-chloro-3-cyano-1H-indol-7-yl)-5-fluoro-1-(2-hydroxy-2-methyl-propyl)pyrazole-4-sulfonamide]
< 250 nM	< 250 nM	CCn1ncc(S(=O)(=O)Nc2ccc(Cl)c3c(C#N)c[nH]c23)c1N [Compound 273, 5-amino-N-(4-chloro-3-cyano-1H-indol-7-yl)-1-ethyl-pyrazole-4-sulfonamide]
250 to 1000 nM	> 1000 nM	Cc1ccc(NS(=O)(=O)c2cnn(CC(=O)N(C)C)c2)c2[nH]cc(C#N)c12 [Compound 140, 2-[4-[(3-cyano-4-methyl-1H-indol-7-yl)sulfamoyl]pyrazol-1-yl]-N,N-dimethyl-acetamide]
< 250 nM	250 to 1000 nM	CC(C)(C(N)=O)n1cc(S(=O)(=O)Nc2ccc(Cl)c3c(C#N)c[nH]c23)cn1 [Compound 154, 2-[4-[(4-chloro-3-cyano-1H-indol-7-yl)sulfamoyl]pyrazol-1-yl]-2-methyl-propanamide]
< 250 nM	250 to 1000 nM	C[C@H](O)Cn1cc(S(=O)(=O)Nc2ccc(Cl)c3c(C#N)c[nH]c23)cn1 [Compound 196, N-(4-chloro-3-cyano-1H-indol-7-yl)-1-[(2S)-2-hydroxypropyl]pyrazole-4-sulfonamide]
250 to 1000 nM	> 1000 nM	O=S(=O)(Nc1cccc2c(Cl)c[nH]c12)c1cnn(C2CNC2)c1 [Compound 18, 1-(azetidin-3-yl)-N-(3-chloro-1H-indol-7-yl)pyrazole-4-sulfonamide]
< 250 nM	> 1000 nM	Cn1cc(S(=O)(=O)Nc2ccc(C(F)(F)F)c3c(Cl)c[nH]c23)cn1 [Compound 97, N-[3-chloro-4-(trifluoromethyl)-1H-indol-7-yl]-1-methyl-pyrazole-4-sulfonamide]
< 250 nM	250 to 1000 nM	Cn1cc(S(=O)(=O)Nc2ccc(C(F)(F)F)c3c(C#N)c[nH]c23)cn1 [Compound 105, N-[3-cyano-4-(trifluoromethyl)-1H-indol-7-yl]-1-methyl-pyrazole-4-sulfonamide]

IC50 [1]	EC50 [2]	Structure (SMILES)
< 250 nM	< 250 nM	Cc1ccc(NS(=O)(=O)c2cnn(CC(F)F)c2)c2[nH]cc(C#N)c12 [Compound 66, N-(3-cyano-4-methyl-1H-indol-7-yl)-1-(2,2-difluoroethyl)pyrazole-4-sulfonamide]
< 250 nM	250 to 1000 nM	O=S(=O)(Nc1ccc(Cl)c2c(Cl)c[nH]c12)c1cnn(C(CO)(CO)CCl)c1 [Compound 166, 1-[1-(chloromethyl)-2-hydroxy-1-(hydroxymethyl)ethyl]-N-(3,4-dichloro-1H-indol-7-yl)pyrazole-4-sulfonamide]
< 250 nM	250 to 1000 nM	C[C@H](CF)n1cc(S(=O)(=O)Nc2ccc(F)c3c(C#N)c[nH]c23)cn1 [Compound 225, N-(3-cyano-4-fluoro-1H-indol-7-yl)-1-[(1R)-2-fluoro-1-methyl-ethyl]pyrazole-4-sulfonamide]
< 250 nM	> 1000 nM	Cc1ccc(NS(=O)(=O)c2cnn(-c3ccc(C(F)(F)F)cn3)c2)c2[nH]cc(C#N)c12 [Compound 31, N-(3-cyano-4-methyl-1H-indol-7-yl)-1-[5-(trifluoromethyl)-2-pyridyl]pyrazole-4-sulfonamide]
< 250 nM	250 to 1000 nM	N#Cc1c[nH]c2c(NS(=O)(=O)c3cnn(CCCO)c3)ccc(Cl)c12 [Compound 209, N-(4-chloro-3-cyano-1H-indol-7-yl)-1-(3-hydroxypropyl)-1H-pyrazole-4-sulfonamide]
< 250 nM	250 to 1000 nM	N#Cc1c[nH]c2c(NS(=O)(=O)c3cnn(CC(F)F)c3)ccc(C(F)(F)F)c12 [Compound 104, N-[3-cyano-4-(trifluoromethyl)-1H-indol-7-yl]-1-(2,2-difluoroethyl)pyrazole-4-sulfonamide]
< 250 nM	< 250 nM	Cc1ccc(NS(=O)(=O)c2cnn(C)c2Cl)c2[nH]cc(C#N)c12 [Compound 155, 5-chloro-N-(3-cyano-4-methyl-1H-indol-7-yl)-1-methyl-pyrazole-4-sulfonamide]
< 250 nM	250 to 1000 nM	CC(C)(C)OC(=O)N1CC(F)(Cn2cc(S(=O)(=O)Nc3ccc(Cl)c4c(C#N)c[nH]c34)cn2)C1 [Compound 254, tert-butyl 3-[[4-[(4-chloro-3-cyano-1H-indol-7-yl)sulfamoyl]pyrazol-1-yl]methyl]-3-fluoro-azetidine-1-carboxylate]
< 250 nM	> 1000 nM	O=S(=O)(Nc1cccc2c(Cl)c[nH]c12)c1cnn([C@H]2C[C@@H](O)C2)c1 [Compound 194, N-(3-chloro-1H-indol-7-yl)-1-(3-hydroxycyclobutyl)pyrazole-4-sulfonamide]
< 250 nM	250 to 1000 nM	N#Cc1c[nH]c2c(NS(=O)(=O)c3cnn([C@@H](CO)C(F)F)c3)ccc(Cl)c12 [Compound 226, N-(4-chloro-3-cyano-1H-indol-7-yl)-1-[(1S)-2,2-difluoro-1-(hydroxymethyl)ethyl]pyrazole-4-sulfonamide]
< 250 nM	250 to 1000 nM	N#Cc1c[nH]c2c(NS(=O)(=O)c3cnn(CC4CC4)c3)ccc(Cl)c12 [Compound 123, N-(4-chloro-3-cyano-1H-indol-7-yl)-1-(cyclopropylmethyl)pyrazole-4-sulfonamide]
< 250 nM	< 250 nM	Cc1ccc(NS(=O)(=O)c2cnn(C)c2C)c2[nH]cc(C#N)c12 [Compound 113, N-(3-cyano-4-methyl-1H-indol-7-yl)-1,5-dimethyl-pyrazole-4-sulfonamide]
< 250 nM	< 250 nM	Cc1ccc(NS(=O)(=O)c2cnn(C)c2)c2[nH]cc(Cl)c12 [Compound 75, N-(3-chloro-4-methyl-1H-indol-7-yl)-1-methyl-pyrazole-4-sulfonamide]
< 250 nM	> 1000 nM	CC1(Cn2cc(S(=O)(=O)Nc3cccc4c(Cl)c[nH]c34)cn2)CSC1 [Compound 44, N-(3-chloro-1H-indol-7-yl)-1-[(3-methylthietan-3-yl)methyl]pyrazole-4-sulfonamide]
< 250 nM	< 250 nM	Cc1ccc(NS(=O)(=O)c2cnn(CCCF)c2)c2[nH]cc(C#N)c12 [Compound 73, N-(3-cyano-4-methyl-1H-indol-7-yl)-1-(3-fluoropropyl)pyrazole-4-sulfonamide]
< 250 nM	250 to 1000 nM	Cc1ccc(NS(=O)(=O)c2cnn(C3(CO)COC3)c2)c2[nH]cc(C#N)c12 [Compound 116, N-(3-cyano-4-methyl-1H-indol-7-yl)-1-[3-(hydroxymethyl)oxetan-3-yl]pyrazole-4-sulfonamide]
< 250 nM	250 to 1000 nM	Cc1ccc(NS(=O)(=O)c2cn(C)nc2F)c2[nH]cc(C#N)c12 [Compound 148, N-(3-cyano-4-methyl-1H-indol-7-yl)-3-fluoro-1-methyl-pyrazole-4-sulfonamide]

Reference: US20250368627A1, “PYRAZOLESULFONAMIDES AS ANTITUMOR AGENTS” (Peloton Therapeutics, Inc., a fully owned subsidiary of …, priority 2019, published 2025)
